Test results as given in patent publication US20210323918A1, “COMPOSITIONS AND METHODS FOR SUPPRESSING AND/OR TREATING A GROWTH RELATED DISEASE AND/OR A CLINICAL CONDITION THEREOF” (CK Biotech Inc., priority 2018, published 2021).

Biological target: T1, CXXC5-DVL interaction (Homo sapiens, UniProt O14640)
T1 construct: 5 mg/ml purified DVL PDZ domain was incubated in each well
T1 sequence (O14640 251-323 limits assumed): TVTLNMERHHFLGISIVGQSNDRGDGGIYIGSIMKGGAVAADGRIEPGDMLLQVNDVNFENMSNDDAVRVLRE
Assay: In vitro CXXC5-DVL binding assay (FITC-tagged PTD-DBMP on DVL PDZ domain)
Conditions: compound 30 μM; fluorescent intensity normalized to DMSO-treated control; read-out: CXXC5-DVL interaction (%)
Experimental: Screening for compounds that inhibit the CXXC5-DVL interaction. […] Briefly, 5 mg/ml purified DVL PDZ domain was incubated in each well of a 96-well Maxibinding Immunoplate (SPL) at 4° C. for 16 hours. After the addition of 10 μM FITC-tagged PTD-DBMP to each well, each compound in the chemical library or control (DMSO) was treated to the well at a final concentration of 30 μM. The fluorescence intensity was measured using a Fluorstar Optima microplate reader (BGM Lab Technologies, Ortenberg, Germany). The binding values were calculated as a percent ratio of the fluorescent intensity normalized to the DMSO-treated control.

remaining activity at 30 µM [%] | SMILES
7.63 | CCN(CC)S(=O)(=O)c1ccc(OC)c(Nc2cc(-c3ccccc3)nc(C)n2)c1 [Compound 6]
7.62 | COc1ccc(C)cc1/N=N/c1ccc(O)c2nc(/C=N/O)ccc12 [Compound 1]
7.65 | O=C1Nc2ccccc2/C1=C1/Nc2ccccc2/C1=N\O [Compound 12, indirubin-3′-oxime, reference compound]
4.76 | COC(=O)C1=C(C)N/C(=C/c2cc(C)n(-c3ccccc3F)c2C)C1=O [Compound 4]
1.01 | COc1ccc(C2CC(C(F)(F)F)n3ncc(C(=O)O)c3N2)cc1OC (centres unmarked) [Compound 2]
7.61 | Oc1cc(O)cc(/C=C/c2ccc(O)c(O)c2)c1 [Compound 17]
4.01 | Cc1cc(C)c2c(O)nc(SCC(=O)c3ccc(O)c(O)c3)nc2n1 [Compound 3]
7.66 | O=c1c(O)c(-c2cc(O)c(O)c(O)c2)oc2cc(O)cc(O)c12 [Compound 13]
1.73 | O=c1cc(O)cc(/C=C/c2ccc(O)c(O)c2)o1 [Compound 11]
0.72 | COc1ccc(C2CC(=O)C3=C(C2)Nc2onc(C)c2C3c2ccc(O)c(O)c2)cc1OC (centres unmarked) [Compound 7]
7.43 | O=c1c(O)c(-c2ccc(O)cc2O)oc2cc(O)cc(O)c12 [Compound 15]
5.7 | O=C(OCCN1CCOCC1)C1(c2ccccc2)CCCCC1 [Compound 18]
7.65 | CC(N)(Cc1ccc(O)c(O)c1)C(=O)O (centres unmarked) [Compound 14]
1.19 | O=C(O)C1Sc2[nH]c(=O)sc2C2c3cc(Br)cc(Br)c3OC(=O)C12 (centres unmarked) [Compound 5]

SMILES | remaining activity at 30 µM [%]
CN1CCc2cc(O)cc3c2[C@H]1Cc1ccc(O)c(O)c1-3 [Compound 9] | 2.5

Same assay, conditions: read-out: CXXC5-DVL interaction (%)

SMILES | remaining activity at 30 µM [%]
CN(C)c1ccc(O)c2c1C[C@H]1C[C@H]3[C@H](N(C)C)C(O)=C(C(N)=O)C(=O)[C@@]3(O)C(O)=C1C2=O [Compound 16] | 4.37
NC(Cc1cc(O)c(O)cc1O)C(=O)O (centres unmarked) [Compound 10] | 1.39
